21 compounds from PubChem BioAssay (NCI) can be followed below.

Among the test systems are SK-MEL-28 melanoma; MDA-MB-435; KM20L2 colon; HS 578T breast; SF-268 CNS; RXF 393 renal; CAKI-1 renal; LXFL 529 NSCLC; UACC-62 melanoma; M19-MEL melanoma.
What all share (assay): inhibition of tumour cell growth, NCI panel, 48 h

Values joined by “and” are separate entries in the source; they are usually repeats but may differ in a detail not shown here. Equal entries are not always repeated.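 Where inhibition never reached the appropriate level, the endpoint shown equals the highest concentration tested. Otherwise, values were interpolated linearly from a five-concentration, 48-hour dose response in 96-well plates. GI50: concentration for 50% inhibition of growth. The concentration for full growth arrest is given as TGI.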

As for `NC1=NC(=O)N2CC12` (stereo unspecified), the TGI is > 100 µM and 196 µM in the experiment on SK-MEL-28 melanoma; 194 µM with MDA-MB-435; more than 100 µM in the experiment with KM20L2 colon; 1720 µM with HS 578T breast; > 100 µM and 209 µM in the experiment with SF-268 CNS; > 100 µM and 334 µM in the experiment with RXF 393 renal. The TGI in the experiment on CAKI-1 renal is > 100 µM and 118 µM; in the experiment on LXFL 529 NSCLC, more than 100 µM; with UACC-62 melanoma it was > 100 µM and 408 µM. Besides, the GI50 in the experiment with MDA-MB-435 is 90.9 µM and 78 µM; in the experiment on HS 578T breast, 316 µM; in the experiment with CAKI-1 renal, 35.1 µM; in the experiment with UACC-62 melanoma it was 130 µM.

Take `CCC[CH2][Sn]1([CH2]CCC)[O]C(c2ccccn2)S(=O)(=O)[O]1` (stereo unspecified): the GI50 in the experiment on SK-MEL-28 melanoma is 1.94 µM; in the experiment with M19-MEL melanoma, 4.1 µM; in the experiment on KM20L2 colon, 6.65 µM; with RXF 393 renal it was 2.36 µM; in the experiment with CAKI-1 renal, 1.58 µM; with LXFL 529 NSCLC, 1.54 µM. Besides, in the experiment on UACC-62 melanoma, the GI50 is 1.84 µM. The TGI in the experiment on SK-MEL-28 melanoma amounted to 3.76 µM; with M19-MEL melanoma, 14.4 µM; in the experiment on KM20L2 colon, 20.2 µM; in the experiment with RXF 393 renal, 3.95 µM; in the experiment with CAKI-1 renal, 3.63 µM; in the experiment with LXFL 529 NSCLC, 2.92 µM. For the same compound, the TGI with UACC-62 melanoma was determined as 3.78 µM.

As for `CCOC(=O)C12CCCC1(O)N(NC(=O)c1cccc(Cl)c1)C(C)=C2C(=O)OC` (stereo unspecified), the TGI with SK-MEL-28 melanoma, with M19-MEL melanoma, in the experiment on KM20L2 colon, in the experiment on SF-268 CNS, with RXF 393 renal and in the experiment on CAKI-1 renal was more than 100 µM throughout. Moreover, the TGI in the experiment on LXFL 529 NSCLC and with UACC-62 melanoma was more than 100 µM in each case.

In the case of `CSc1ccc(-c2cn3ccsc3n2)c(O)c1`, the TGI was more than 100 µM with SK-MEL-28 melanoma; more than 100 µM in the experiment with KM20L2 colon; more than 100 µM with SF-268 CNS; more than 100 µM in the experiment with CAKI-1 renal; more than 82.2 µM in the experiment with LXFL 529 NSCLC; more than 100 µM in the experiment with UACC-62 melanoma.

Take `O=C(O)/C(Cl)=C(\Cl)Nc1cccc(C(F)(F)F)c1`: the TGI in the experiment on SK-MEL-28 melanoma, with M19-MEL melanoma, with KM20L2 colon, in the experiment with SF-268 CNS, in the experiment on RXF 393 renal and in the experiment with CAKI-1 renal was more than 100 µM in each case. Also, the TGI in the experiment on LXFL 529 NSCLC and in the experiment on UACC-62 melanoma was more than 100 µM each time.

With `COC(=O)C1=CC(O)CCC1c1ccc(OC)cc1` (stereo unspecified), the TGI with SK-MEL-28 melanoma, in the experiment with M19-MEL melanoma, in the experiment on KM20L2 colon, with SF-268 CNS, with RXF 393 renal and with CAKI-1 renal was more than 100 µM each time. The TGI in the experiment with LXFL 529 NSCLC and in the experiment with UACC-62 melanoma was more than 100 µM throughout.

Take `CN1CCC23c4c5ccc(O)c4OC2C(=NN=C2CCC4(O)C6Cc7ccc(O)c8c7C4(CCN6C)C2O8)CCC3(O)C1C5` (stereo unspecified): the TGI in the experiment with SK-MEL-28 melanoma, in the experiment on M19-MEL melanoma, in the experiment with KM20L2 colon, with SF-268 CNS, in the experiment on CAKI-1 renal and in the experiment with LXFL 529 NSCLC was more than 100 µM in each case. The same compound registered a TGI with UACC-62 melanoma of more than 100 µM.

Regarding `C/C(=N\O)c1sc(-n2nc(-c3ccccc3)cc2-c2ccccc2)nc1C`, the TGI in the experiment on SK-MEL-28 melanoma was 17.8 µM; in the experiment with M19-MEL melanoma, 20.8 µM; with KM20L2 colon, 16.1 µM; in the experiment on SF-268 CNS, 19.8 µM; with CAKI-1 renal, 27.3 µM; with LXFL 529 NSCLC it was 16.3 µM. The TGI in the experiment with UACC-62 melanoma amounted to 16.9 µM.

On to `c1cncc(C2c3[nH]c4ccccc4c3CCN2CCCN2CCCCC2)c1` (stereo unspecified), for which the TGI is 47 µM with SK-MEL-28 melanoma; more than 100 µM with M19-MEL melanoma; more than 100 µM in the experiment on KM20L2 colon; more than 100 µM in the experiment with RXF 393 renal; more than 100 µM in the experiment on CAKI-1 renal; more than 100 µM in the experiment with LXFL 529 NSCLC. In the experiment on UACC-62 melanoma, this compound registered a TGI of more than 100 µM.

Turning to `CCc1ccccc1NC(=O)/C(CC(=O)c1c(C)n([O-])c2ccccc2[n+]1=O)=N\NS(=O)(=O)c1ccc(C)cc1`, the TGI is more than 100 µM in the experiment on SK-MEL-28 melanoma; 46.7 µM in the experiment on M19-MEL melanoma; more than 100 µM with KM20L2 colon; more than 100 µM in the experiment on SF-268 CNS; more than 100 µM in the experiment on RXF 393 renal; more than 100 µM with LXFL 529 NSCLC. In addition, in the experiment with UACC-62 melanoma, the TGI turned out to be 67 µM.

Consider `COc1ccccc1/C=C/C(=O)c1sc(-c2cccnc2)nc1C`, for which the TGI with SK-MEL-28 melanoma, with M19-MEL melanoma, in the experiment on KM20L2 colon, with SF-268 CNS, in the experiment with RXF 393 renal and in the experiment on CAKI-1 renal was more than 100 µM in each case. Also, the TGI in the experiment with UACC-62 melanoma was more than 100 µM.

With `CC(=O)[CH-]C(=O)c1ccccc1.CC(=O)[CH-]C(=O)c1ccccc1.O=C([O-])C[O-].O=C([O-])C[O-].[Ti+4]`, the GI50 with SK-MEL-28 melanoma was 68.1 µM; with KM20L2 colon, 43.8 µM; in the experiment on SF-268 CNS, more than 100 µM; in the experiment on CAKI-1 renal, 54.5 µM; with LXFL 529 NSCLC, 33.5 µM; in the experiment on UACC-62 melanoma, more than 100 µM. The TGI in the experiment with SK-MEL-28 melanoma, in the experiment on M19-MEL melanoma, in the experiment on KM20L2 colon, in the experiment on SF-268 CNS, with CAKI-1 renal and in the experiment with LXFL 529 NSCLC was more than 100 µM in each case. The same compound had a TGI in the experiment with UACC-62 melanoma of more than 100 µM.

Regarding `CCOC(=O)C1Cc2c(ccc(OC)c2OC)C(=O)C1N` (stereo unspecified), the TGI with SK-MEL-28 melanoma, with M19-MEL melanoma, in the experiment with KM20L2 colon, with RXF 393 renal, with CAKI-1 renal and in the experiment on LXFL 529 NSCLC was more than 100 µM in each case. Besides, the TGI in the experiment on UACC-62 melanoma is more than 100 µM.

As for `OCCN1CCN(CCO)Cc2ccccc2OCCOc2ccccc2C1`, the TGI in the experiment on SK-MEL-28 melanoma, with M19-MEL melanoma, with KM20L2 colon, in the experiment with SF-268 CNS, with RXF 393 renal and with CAKI-1 renal was more than 100 µM throughout. For the same compound, the TGI in the experiment with LXFL 529 NSCLC was more than 100 µM.

As for `CCOC(=O)/C(=C/c1ccc(OC)c(OC)c1)C(=O)c1ccccc1`, the TGI was 28.5 µM in the experiment on SK-MEL-28 melanoma; 44.1 µM in the experiment on M19-MEL melanoma; 38.7 µM in the experiment with KM20L2 colon; 36.7 µM in the experiment on SF-268 CNS; 31.8 µM in the experiment on CAKI-1 renal; 25.3 µM with LXFL 529 NSCLC. The TGI in the experiment on UACC-62 melanoma stood at 29.5 µM.

Consider `CCCCCCCCCOC(=S)NC`, for which the TGI with SK-MEL-28 melanoma turned out to be 58.5 µM; in the experiment with M19-MEL melanoma it was 53.9 µM; in the experiment with KM20L2 colon, 32.5 µM; with SF-268 CNS it was 38.5 µM; with CAKI-1 renal it was 43.1 µM; in the experiment on LXFL 529 NSCLC, 34.8 µM. The compound also showed a TGI with UACC-62 melanoma of 53.9 µM.

On to `O=C(OC(C(=O)O)C(OC(=O)c1ccccc1)C(=O)O)c1ccccc1` (stereo unspecified) (tested in a mixture with another compound), for which the TGI is more than 100 µM with SK-MEL-28 melanoma; 62.7 µM with MDA-MB-435; more than 100 µM in the experiment with M19-MEL melanoma; > 100 µM and 88.7 µM with KM20L2 colon; 64.8 µM in the experiment on HS 578T breast; more than 100 µM in the experiment on SF-268 CNS. The TGI is more than 100 µM in the experiment on RXF 393 renal; > 100 µM and 52.2 µM in the experiment on CAKI-1 renal; more than 100 µM in the experiment with UACC-62 melanoma.

`O=c1c(O)c(-c2ccc(O)c(O)c2)oc2cc(O)ccc12`: the TGI was more than 58.4 µM in the experiment with SK-MEL-28 melanoma; more than 88.1 µM in the experiment on M19-MEL melanoma; 73.2 µM with KM20L2 colon; more than 74.1 µM in the experiment with SF-268 CNS; 47 µM in the experiment on RXF 393 renal; more than 87.7 µM in the experiment with LXFL 529 NSCLC. Besides, the TGI in the experiment with UACC-62 melanoma was found to be 39.5 µM.

As for `O=C1C2CC3C(CC2C(=O)[N]1[Sn]([c]1ccccc1)([c]1ccccc1)[c]1ccccc1)C1(Cl)C(Cl)=C(Cl)C3(Cl)C1(Cl)Cl` (stereo unspecified), the GI50 in the experiment with SK-MEL-28 melanoma was 0.144 µM; in the experiment on MDA-MB-435, 0.0872 µM; in the experiment on HS 578T breast, 0.204 µM; in the experiment on SF-268 CNS, 0.111 µM; in the experiment on RXF 393 renal, 0.0863 µM; in the experiment with CAKI-1 renal it was 0.12 µM. The GI50 in the experiment on UACC-62 melanoma was 0.118 µM. Further, the TGI was 0.295 µM in the experiment on SK-MEL-28 melanoma; 0.257 µM in the experiment with MDA-MB-435; 1.11 µM in the experiment with HS 578T breast; 0.286 µM with SF-268 CNS; 0.26 µM in the experiment with RXF 393 renal; 0.275 µM in the experiment with CAKI-1 renal. Also, the TGI with UACC-62 melanoma worked out at 0.288 µM.

Regarding `Nc1nc(N)c2nc(CNc3ccc(C(=O)CC(CCC(=O)O)C(=O)O)cc3)cnc2n1` (stereo unspecified), the GI50 was more than 50.7 µM in the experiment with SK-MEL-28 melanoma; 0.137 µM with MDA-MB-435; more than 100 µM in the experiment on HS 578T breast; 0.197 µM with SF-268 CNS; more than 100 µM in the experiment with RXF 393 renal; 0.0412 µM in the experiment with CAKI-1 renal. Besides, the GI50 with UACC-62 melanoma was 0.374 µM. The TGI in the experiment with SK-MEL-28 melanoma, in the experiment with MDA-MB-435, in the experiment on HS 578T breast, in the experiment on SF-268 CNS, in the experiment with RXF 393 renal and with CAKI-1 renal was more than 100 µM throughout. In the experiment with UACC-62 melanoma, this compound displayed a TGI of more than 100 µM.

As for `CN1CCN(C(=O)c2ccc(NC(=O)Nc3ccc(N(C)c4ccnc(Nc5ccc(CS(C)(=O)=O)cc5)n4)cc3)cc2)CC1`, the GI50 is more than 25 µM in the experiment on SK-MEL-28 melanoma; more than 25 µM with MDA-MB-435; 4.62 µM in the experiment with HS 578T breast; 9.95 µM in the experiment with SF-268 CNS; 24.2 µM in the experiment on RXF 393 renal; more than 25 µM in the experiment with CAKI-1 renal. The GI50 in the experiment with UACC-62 melanoma is 9.99 µM. For the same compound, the TGI with SK-MEL-28 melanoma was more than 25 µM; in the experiment on MDA-MB-435 it was more than 25 µM; in the experiment on HS 578T breast, more than 22.1 µM; with SF-268 CNS it was more than 25 µM; with RXF 393 renal, more than 25 µM; with CAKI-1 renal it was more than 25 µM. Also, in the experiment on UACC-62 melanoma, the TGI is more than 25 µM.
